# According to paper PMC4747383, “Design of a peptidic inhibitor that targets the dimer interface of a prototypic galectin” (Oncotarget, 2015):
# Entries after “also recorded” stand apart in the source; their conditions may differ.
# Tests used:
# [1] = system: recombinant hGal-1; test: Disruption of hGal-1 dimers, native gel electrophoresis/Western blot; type: biochemical, human; settings: recombinant hGal-1, 20 mM potassium phosphate pH 7.1, films overexposed, three independent experiments
# Description: To measure the ability of the peptides to disrupt the formation of hGal-7 dimers, we used mild denaturing native gel electrophoresis, a commonly used approach to visualize monomer-dimer equilibrium (Fig. 1A and Supplementary Fig. S1). […] This specificity at disrupting hGal-7 dimer formation is provided by distinct three-dimensional arrangements between otherwise very similar galectin homologues. Indeed, while all monomeric galectins reveal identical topologies, dimer formation in hGal-7 proceeds through a “back-to-back” topology of the monomers while other galectins, including hGal-1 and hGal-2, adopt a “side-by-side” structural arrangement (Fig. 1B). This structural organization provides additional means to specifically target and disrupt galectin function.
# Incubation of the recombinant B. hGal-1 and C. hGal-2 with hGal-7(129–135) was performed in the same potassium phosphate buffer. The effect of hGal-7(129–135) on the monomeric and dimeric forms of hGal-7/hGal-1/hGal-2 was assessed by Western blotting in native conditions with respective antibodies. The hGal-1/hGal-2 films were overexposed. PACAP28–38 was the control peptide used in order to ensure the specificity of hGal-7(129–135). […]
# Human Gal-7 cDNA was cloned into pET-22b(+) using NdeI and HindIII restriction enzymes. […] Purified fractions were analyzed by SDS-PAGE. […]
# [2] = system: recombinant hGal-7; test: Solid phase fluorescent binding assay on hGal-7; set-up: species or system human; settings: hGal-7 10 μg/ml coated; unlabeled peptide (1 mM) 60 min, then biotin-labeled peptide 120 min, room temperature; Streptavidin R-phycoerythrin fluorescence; three independent experiments
# Description: Results are representative of three independent experiments. Error bars represent standard deviation.
substance,measurement,setting,value
"H-LDSVRIP-NH2 [hGal-7(129–135), peptide corresponding to hGal-7 segment between residues 129–135]",disruption of hGal-1 homodimers,[1],No such effect was observed
same,binding to immobilized hGal-7,[2],direct interaction; also recorded: bind hGal-7 in a concentration-dependent and specific manner
